Assay results reported in patent US7087420B1, “Microbial β-glucuronidase genes, gene products and uses thereof” (Cambia, priority 1997, dated 2006).
Values belong to the compound of their own block, whether it stands above or below them.

Experiments:
[1] = tested on: Millin rice plants; conditions: MUG 1 mM in water
Experimental: Seeds of T0 plants, which are the primary transformed plants, from pTANG86.1/2/3/4/5/6 (see Table 7 below) transformed plants, seeds of pCAM1301 (E. coli GUS with N358-Q change to remove N-glycosylation signal sequence) transformed plants, or untransformed Millin rice seeds are germinated in water containing 1 mM MUG or 50 μg/mL X-GlcA with or without hygromycin (for nontransformed plants). Resulting plants are observed for any reduced growth due to the presence of MUG, X-GlcA.

[2] = tested on: rice seeds; test: Growth of rice plants germinated in water containing glucuronide substrate; type: in vivo; conditions: 50 μg/mL X-GlcA in germination water
[3] = tested on: Staphylococcus β-glucuronidase (GUS^Stp, Staph GUS), wild type, SEQ ID NO: 18 (DNA SEQ ID NO: 1); test: Inhibition of Staphylococcus GUS by end product glucuronic acid; type: biochemical
Experimental: GUS^Stp enzyme activity is also resistant to inhibition by detergents. Enzyme activity assays are measured in the presence of varying amounts of SDS, Triton® X-100, or sarcosyl. […] In SDS, the enzyme still had substantial activity (60–75% activity). In addition, GUS^Stp is not inhibited by the end product of the reaction. Activity is determined normally or in the presence of 1 or 10 mM glucuronic acid. No inhibition is seen at either 1 or 10 mM glucuronic acid (FIG. 11). The enzyme is also assayed in the presence of organic solvents, dimethylformamide (DMF) and dimethylsulfoxide (DMSO), and high concentrations of NaCl (FIG. 12).

[4] = biological target: T1, E. coli β-glucuronidase (E. coli GUS, GUS^Eco), wild type, SEQ ID NO: 23 (Escherichia coli, UniProt P05804); conditions: background statement, no concentration; cited from earlier work
T1 construct: pNPG substrate; functional homotetramer
T1 sequence (P05804 whole entry): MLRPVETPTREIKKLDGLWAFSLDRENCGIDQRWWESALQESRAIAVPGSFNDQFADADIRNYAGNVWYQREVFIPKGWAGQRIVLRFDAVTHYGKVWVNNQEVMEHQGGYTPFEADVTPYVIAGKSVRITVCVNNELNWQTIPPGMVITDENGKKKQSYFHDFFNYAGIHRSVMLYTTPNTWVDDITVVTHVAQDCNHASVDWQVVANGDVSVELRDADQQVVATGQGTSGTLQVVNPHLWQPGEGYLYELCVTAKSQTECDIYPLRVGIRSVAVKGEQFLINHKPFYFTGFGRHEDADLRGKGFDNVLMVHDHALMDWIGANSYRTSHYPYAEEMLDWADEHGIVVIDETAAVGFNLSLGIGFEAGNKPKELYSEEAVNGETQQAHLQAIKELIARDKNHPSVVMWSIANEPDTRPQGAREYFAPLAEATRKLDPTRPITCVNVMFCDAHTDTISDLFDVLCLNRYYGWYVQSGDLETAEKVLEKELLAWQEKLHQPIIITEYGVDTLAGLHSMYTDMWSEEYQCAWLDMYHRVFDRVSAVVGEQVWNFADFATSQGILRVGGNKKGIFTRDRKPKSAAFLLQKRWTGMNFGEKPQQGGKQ

[5] = chromophore released from pNPG; cited from earlier work
[6] = tested on: Staphylococcus β-glucuronidase (GUS^Stp, Staph GUS), wild type, SEQ ID NO: 18 (DNA SEQ ID NO: 1); test: Kinetics of pNPG hydrolysis by Staphylococcus GUS (spectrophotometric p-nitrophenol release); type: biochemical
Experimental: The thermal stability of GUS^Stp and E. coli GUS enzymes are determined at 65° C., using a substrate that can be measured by spectrophotometry, for example. One such substrate is p-nitrophenyl β-D-glucuronide (pNPG), which when cleaved by GUS releases the chromophore p-nitrophenol. At a pH greater than its pKa (approximately 7.15), the ionized chromophore absorbs light at 400–420 nm, therefore appears in the yellow range of visible light. Briefly, reactions are performed in 50 mM Na3PO4 pH 7.0, 10 mM 2-ME, 1 mM EDTA, 1 mM pNPG, and 0.1% Triton® X-100 at 37° C. The reactions are terminated by the addition of 0.4 ml of 2-amino-2-methylpropanediol, and absorbance measured at 415 nm against a substrate blank. Under these conditions, the molar extinction coefficient of p-nitrophenol is assumed to be 14,000: One unit is defined as the amount of enzyme that produces 1 nmole of product/min at 37° C.
Turnover number is calculated as nmoles of pNPG converted to p-nitrophenol per min per μg of purified protein.

[7] = tested on: yeast colonies; test: Yeast colonies on X-GlcA expression plates containing tunicamycin; type: cell-based; conditions: tunicamycin 5, 10, and 20 μg/ml
Experimental: (§1) To determine whether the N-glycosylation site has a deleterious effect, on secretion, yeast colonies are streaked on expression plates containing X-GlcA and from 0.1 to 20 μg/ml of tunicamycin (to inhibit all N-glycosylation).

[8] = tested on: yeast strain InvSc1; test: Growth of transformed yeast colonies on expression plates with tunicamycin; conditions: tunicamycin 5, 10, and 20 μg/ml
Experimental: Yeast strain InvSc1 (mat α his3-Δ1 leu2 trp1-289 ura3-52) from Invitrogen (Carlsbad, Calif.) is transformed with the E. coli GUS and Staphylococcus GUS plasmids indicated in the table below. Transformants are plated on both selection media (minimal media supplemented with His, Leu, Trp, and 2% glucose as a carbon source to suppress the expression of the gene driven by the gal1 promoter) and expression media (media supplemented with His, Leu, Trp, 1% raffinose, 1% galactose as carbon source and with 50 μg/ml X-GlcA).
as §1

Effect on roots of rice plants (reduced growth) [1]: somewhat stunted
Compound: Cc1cc(=O)oc2cc(O[C@@H]3O[C@H](C(=O)O)[C@@H](O)[C@H](O)[C@H]3O)ccc12 [MUG, 4-methylumbelliferyl β-D-glucuronide]

Compound: O=C(O)[C@H]1O[C@@H](Oc2c[nH]c3ccc(Br)c(Cl)c23)[C@H](O)[C@@H](O)[C@@H]1O [X-GlcA, 5-bromo-4-chloro-3-indolyl β-D-glucuronide]
toxic effects / reduced growth of plants [2]: No toxic effects

Compound: O=C(O)[C@H]1OC(O)[C@H](O)[C@@H](O)[C@@H]1O (stereo partly drawn) [glucuronic acid]
Inhibition by glucuronic acid ([3]; 1 mM glucuronic acid (FIG. 11)): No inhibition
Inhibition by glucuronic acid ([3]; 10 mM glucuronic acid (FIG. 11)): No inhibition
Inhibition by glucuronic acid (summary statement) ([3]; unlike E. coli GUS, FIG. 11): not substantially inhibited
Inhibition by end product (glucuronic acid) [4]: inhibited

Compound: O=[N+]([O-])c1ccc(O)cc1 [p-nitrophenol]
pKa [5]: approximately 7.15

Compound: O=C(O)[C@H]1O[C@@H](Oc2ccc([N+](=O)[O-])cc2)[C@H](O)[C@@H](O)[C@@H]1O [pNPG, p-nitrophenyl β-D-glucuronide]
Vmax relative to E. coli GUS ([6]; GUS^Stp vs E. coli GUS, 37° C.): about the same
Turnover number relative to E. coli GUS ([6]; GUS^Stp vs E. coli GUS, 37° C. (FIG. 8)): approximately the same as E. coli GUS
Vmax ([6]; Staph GUS, substrate pNPG, 37° C.): 80 nmol/min/µg

Compound: tunicamycin [listing 1 of 2 here]
growth of yeast colonies [7]: do not grow

Compound: tunicamycin [listing 2 of 2 here]
Yeast colony growth (toxicity) [8]: do not grow
